Assay results from patent US20230303539A1, “IMMUNOREGULATORY COMPOUND AND ANTITUMOR APPLICATION THEREOF” (SHANGHAITECH UNIVERSITY, priority 2020, published 2023).

How the values were obtained:
IKZF1/3 [1] = assay: IKZF protein degradation, western blotting assay in SU-DHL-4; format: cell-based, human; conditions: SU-DHL-4, western blotting, dose-dependent; FIGS. 4-5
Description: (§1) Most antibodies were purchased from Cell Signaling Technology, including IKZF1 (#9034S), IKZF3(#15103S), CK1α(#ab108296). GAPDH antibody was purchased from Abcam Company. Tumor cells were plated in a 24-well plate at a cell seeding density of 3×10^5 cells/mL, with 1 mL culture media per well. After 24 h, the cells were treated with different concentrations of the compounds of the present disclosure. After 16 hours, the cells were collected, and washed with PBS. The supernatant was discarded, and the cells were placed on ice, and treated with RIPA protein lysate containing Halt protease and phosphatase inhibitor. The lysate was centrifuged at 10000 RPM at 4° C. for 10 minutes, and the supernatant was collected. An equal amount of proteins were loaded in 4×SDS sample solution, denatured at 95° C. for 5 minutes, and then freezed to -20° C. or directly subjected to protein electrophoresis (4-15% gradient gel, Bio-rad). […] DC50 value (the drug concentration required for degrading proteins by 50%, abbreviated as DC50) reads method: comparing the gray values of the Western blotting bands for the drug treatment with the gray values of the Western blotting band for the DMSO control, and reading the drug concentration range corresponding to the gray value of the Western blotting bands for the drug treatment which is equal to half of the gray value of the Western blotting band for the DMSO control. […]

[2] = tested on: human diffuse large B-cell lymphoma cell line TMD8; assay: Cell proliferation inhibition (CCK-8) in TMD8; format: cell-based; conditions: TMD8 cells, 72 h treatment, read-out: IC50 (half inhibitory concentration) in tumor cells, TMD8
Text: (§2) The tested cell lines used were: Multiple myeloma cell line MM.1S, human Burkitt's lymphoma cell line Daudi, human acute promyelocytic leukemia cell line NB4, human mantle cell lymphoma cell line JEKO-1, human B-cell lymphoma cell line SU-DHL-4, human mantle cell lymphoma cell line Mino, human diffuse large B-cell lymphoma cell line TMD8, human B-cell lymphoma cell line DOHH2, PBMCs cell and human diffuse large B-cell lymphoma cell line WSU-DLCL2, which were purchased from ATCC (American type Culture Collection) or Cell Bank/Stem Cell Bank, Chinese Academy of Sciences. The medium was RPMI1640 supplemented with 10% FBS (fetal calf serum) and 1% Penicillin-Streptomycin. […]
(§3) IC50 values of the compounds of the present disclosure (including the compounds in Table 1 and compounds of examples 1-23) were measured using Cell Titer Blue, Cell Titer GLO, or WST reagent from Promega Company. […] After the cells were treated with the compounds of the present disclosure to be tested for 72 h, cell viability was determined after adding the cell viability detection kit listed above according to the reagent operating instructions. […] The growth inhibition of the compounds of the present disclosure on cells was plotted by Prism Graphpad software, and the IC50 values of the compounds of the present disclosure were calculated therefrom. […]

[3] = tested on: human mantle cell lymphoma cell line Mino; assay: Cell proliferation inhibition (CCK-8) in Mino; format: cell-based; conditions: MINO cells, 72 h treatment, read-out: IC50 (half inhibitory concentration) in tumor cells, MINO
Text: as §2, §3

[4] = tested on: human B-cell lymphoma cell line DOHH2; assay: Cell proliferation inhibition (CCK-8) in DOHH2; format: cell-based; conditions: DOHH-2, DOHH2 cells, 72 h treatment, read-out: IC50 (half inhibitory concentration) in tumor cells, DOHH2
Text: as §2, §3

B lymphoma cells Daudi = assay: Cell proliferation inhibition (cell viability, CCK-8) in Daudi; format: cell-based; conditions: Homo sapiens, 72 h treatment, CCK-8 cell viability
Text: (§4) The tested cell lines used were: Multiple myeloma cell line MM.1S, human Burkitt's lymphoma cell line Daudi, human acute promyelocytic leukemia cell line NB4, human mantle cell lymphoma cell line JEKO-1, human B-cell lymphoma cell line SU-DHL-4, human mantle cell lymphoma cell line Mino, human diffuse large B-cell lymphoma cell line TMD8, human B-cell lymphoma cell line DOHH2, PBMCs cell and human diffuse large B-cell lymphoma cell line WSU-DLCL2, which were purchased from ATCC (American type Culture Collection) or Cell Bank/Stem Cell Bank, Chinese Academy of Sciences. The medium was RPMI1640 supplemented with 10% FBS (fetal calf serum) and 1% Penicillin-Streptomycin. The cells used were identified as correct cells by STR cells, and were negative for mycoplasma through routine inspections.
(§5) IC50 values of the compounds of the present disclosure (including the compounds in Table 1 and compounds of examples 1-23) were measured using Cell Titer Blue, Cell Titer GLO, or WST reagent from Promega Company. Assay details are as follows: Cells were seeded in 100 μL RPMI1640 medium containing serum at a density of 15,000 cells/well. After 24 h, the inoculated cells were treated with diluted commercial inhibitor and the compounds of the present disclosure to be tested after serial dilution. After the cells were treated with the compounds of the present disclosure to be tested for 72 h, cell viability was determined after adding the cell viability detection kit listed above according to the reagent operating instructions. The negative control was DMSO, and the positive control was a commercial inhibitor, both of which were used to treat the cells through the same method as that of the compounds of the present disclosure. The growth inhibition of the compounds of the present disclosure on cells was plotted by Prism Graphpad software, and the IC50 values of the compounds of the present disclosure were calculated therefrom.
(§6) We tested the activities of the compounds of the present invention (including the compounds in Table 1 and Examples 1-23 compounds) in multiple myeloma cancer cells MM.1S cell and B lymphoma cells Daudi through a dose-dependent manner. The cells were treated with the compounds of the present invention at 10 different successively decreasing concentrations (starting at the highest concentration of […]; 5-fold serial dilutions) for 72 h, and then the cell viability determination was performed in accordance with CCK-8 reagent operating instructions.

[5] = tested on: human diffuse large B-cell lymphoma cell line WSU-DLCL2; assay: Cell proliferation inhibition (CCK-8) in WSU-DLCL2; format: cell-based; conditions: WSUDLCL2, WSU-DLCL2 cells, 72 h treatment, read-out: IC50 (half inhibitory concentration) in tumor cells, WSU-DLCL2
Text: as §2, §3

[6] = tested on: human B-cell lymphoma cell line SU-DHL-4; assay: Cell proliferation inhibition (CCK-8) in SU-DHL-4; format: cell-based; conditions: SU-DHL-4 cells, 72 h treatment, FIG. 3
Text: as §2, §3

[7] = tested on: human mantle cell lymphoma cell line JEKO-1; assay: Cell proliferation inhibition (CCK-8) in JEKO-1; format: cell-based; conditions: JEKO-1 cells, 72 h treatment, FIG. 3
Text: as §2, §3

IKZF1/3 [8] = assay: IKZF protein degradation, western blotting assay in WSU-DLCL2; format: cell-based, human; conditions: dose-dependent, FIGS. 4-5
Description: as §1

[9] = tested on: multiple myeloma cancer cells MM.1S; assay: Cell proliferation inhibition (cell viability, CCK-8) in MM.1S; format: cell-based; conditions: Homo sapiens, MM1.S; MM.1S cells, 72 h treatment, CCK-8 cell viability
Text: as §4, §5, §6

TNF-α = TNF-α inhibition in LPS-stimulated PBMC cells (ELISA); format: cell-based; conditions: LPS 1 ng/ml, 18-20 h, FIG. 2
Description: PBMC cells were cultured at 37° C. in 5% CO2 atmosphere, and then seeded in 96-well plates at […]. […] Cells were incubated in medium with or without compounds for 1 h, then stimulated with lipopolysaccharide (LPS; 1 ng/ml), and continually cultured for 18-20 h. Then, the supernatant was collected, diluted with serum-free medium, and tested for TNF-α level by ELISA kit. IC50 was then calculated by Graphpad Prism 7.0. Down-regulation of TNF-α expression is an important way of anti-tumor effect of immunomodulators.

SMILES	IC50 [2] [µM]	IC50 [3] [µM]	IC50 [4] [µM]	IC50 (B lymphoma cells Daudi) [µM]	IC50 [5] [µM]	IC50 [9] [µM]	IKZF1/3 degradation (in words) (IKZF1/3 [1])	inhibition of SU-DHL-4 cell line (in words) [6]	inhibition of JEKO-1 cell line (in words) [7]	IKZF1/3 degradation (in words) (IKZF1/3 [8])	inhibition of the level of TNF-α (in words) (TNF-α)
Cc1nc2cccc(N)c2c(=O)n1C1CCC(=O)NC1=O (centres unmarked) [CC-122, Avadomide, reference compound]	0.492	0.055	> 1	0.158 ± 0.00948	> 1	0.0218 ± 0.0043					the level of TNF-α was inhibited in a dose-dependent manner
Cc1nc2cccc(NCc3ccc(CN4CCOCC4)cc3)c2c(=O)n1C1CCC(=O)NC1=O (centres unmarked) [SIAIS264067, 3-(2-methyl-5-((4-(morpholinomethyl)benzyl)amino)-4-oxoquinazolin-3(4H)-yl)piperidine-2,6-dione]				0.0546 ± 0.00735		0.00859 ± 0.00132					better inhibitory activities than CC-122

More lines, main results first:

IC50 [2] [µM]	IC50 [3] [µM]	IC50 [4] [µM]	IC50 (B lymphoma cells Daudi) [µM]	IC50 [5] [µM]	IC50 [9] [µM]	SMILES	IKZF1/3 degradation (in words) (IKZF1/3 [1])	inhibition of SU-DHL-4 cell line (in words) [6]	inhibition of JEKO-1 cell line (in words) [7]	IKZF1/3 degradation (in words) (IKZF1/3 [8])	inhibition of the level of TNF-α (in words) (TNF-α)
0.103	0.00505	0.307	0.0129 ± 0.00387	0.164	0.00262 ± 0.00049	Cc1nc2cccc(NCc3ccc(CN4CCCCCC4)cc3F)c2c(=O)n1C1CCC(=O)NC1=O (centres unmarked) [SIAIS355035, 3-(5-((4-(azepan-1-ylmethyl)-2-fluorobenzyl)amino)-2-methyl-4-oxoquinazolin-3(4H)-yl)piperidine-2,6-dione]	can significantly degrade IKZF1/3 at effective concentration significantly lower than that of CC-122	significantly stronger inhibitory effects as compared with CC-122 and lenalidomide	significantly stronger inhibitory effects as compared with CC-122 and lenalidomide	can significantly degrade IKZF1/3 at effective concentration significantly lower than that of CC-122	
			0.0587 ± 0.0224		0.0106 ± 0.00195	Cc1nc2cccc(NCc3ccc(CN4CCSCC4)cc3)c2c(=O)n1C1CCC(=O)NC1=O (centres unmarked) [SIAIS313074, 3-(2-methyl-4-oxo-5-((4-(thiomorpholinomethyl)benzyl)amino)quinazolin-3(4H)-yl)piperidine-2,6-dione]					better inhibitory activities than CC-122
			0.0435 ± 0.0179		0.00482 ± 0.00236	Cc1nc2cccc(NCc3ccc(CN4CCCCCC4)cc3)c2c(=O)n1C1CCC(=O)NC1=O (centres unmarked) [SIAIS313087, 3-(5-((4-(azepan-1-ylmethyl)benzyl)amino)-2-methyl-4-oxoquinazolin-3(4H)-yl)piperidine-2,6-dione]					better inhibitory activities than CC-122
